Data: patent US10973772B2, “Targeted delivery of hydrophilic drugs” (Double Bond Pharmaceuticals AB, priority 2014, dated 2021)
Structures can show the parent of a compound that is named as a salt. Where two headings read alike, the source gives them in different places.

How the values were obtained:
[1] = In vivo distribution of doxorubicin in the liver of Wistar rats; details: female, rat, intravenous, 5 mg/kg
[2] = Californian, rabbit, in vivo, 5 mg/kg, 0.5 h
[3] = female, Wistar, rat, in vivo, 5 mg/kg, 2 h
[4] = In vivo distribution of doxorubicin in Californian rabbit liver; details: intravenous, 5 mg/kg
[5] = rabbit ear vein; 1.25 mg doxorubicin/kg vs 5.0 mg doxorubicin/kg doxorubicin hydrochloride
Method: FIG. 9 are graphs illustrating doxorubicin concentration in the liver and the heart upon intravenous injection of 5 mg/kg aqueous doxorubicin hydrochloride and of 1.25 mg/kg of the composition of the invention according to Example 1.
The doxorubicin composition of the invention according to Example 1 (R═C16 sulfonate) was administered to Californian rabbits by injection into the ear vein at a concentration of 1.25 mg doxorubicin/kg body weight. For comparison aqueous doxorubicin hydrochloride was administered in the same manner at a concentration of 5.0 mg doxorubicin/kg body weight.

[6] = Solubility in aqueous ethanol (UV method); assay type: physicochemical
Method: Solubility in aqueous ethanol was determined by centrifuging an adequate amount of freshly obtained colloid at 3000 rpm for 30-90 min, decanting the supernatant, adding 10 mL water and shaking the mixture, then repeating centrifugation, shaking and washing 3 times. The centrifugate from the final centrifugation was air dried for 72 h at room temperature followed by drying in vacuo for 24 h. A portion of the dried centrifugate (20 mg) was resuspended in 6 mL aqueous ethanol by stirring at room temperature for 24 h. The mixture was centrifuged at 3000 rpm for 10 min and the supernatant filtered through a 0.2 micrometer filter to remove aggregates of undissolved solid product. The solubility of the compound was determined by a UV method.

concentration at 2 h [1] [ng/g] | Increase of doxorubicin concentration in liver tissue [2] | Increase of doxorubicin concentration in liver tissue [3] | concentration at 0.5 h [4] [ng/g] | Delivery of doxorubicin to the heart versus aqueous doxorubicin hydrochloride [5] | Efficiency of delivery of doxorubicin to the liver versus aqueous doxorubicin hydrochloride [5] | Solubility ([6]; colloid doxorubicin alkyl sulfates and alkane sulfonates in 30% ethanol (v/v)) [µg/mL] | Solubility in 30% ethanol ([6]; doxorubicin salts, 30% ethanol (Table 5)) [µg/mL] | SMILES
11.5 ± 2.98 | (1) times | (1) times | 0.392 ± 0.128 |  |  |  |  | COc1cccc2c1C(=O)c1c(O)c3c(c(O)c1C2=O)C[C@@](O)(C(=O)CO)C[C@@H]3O[C@H]1C[C@H](N)[C@H](O)[C@H](C)O1 [Cl^−, doxorubicin hydrochloride]
 |  |  |  | no difference | about four | 11.94 | 11.94 | CCCCCCCCCCCCCCCCS(=O)(=O)O.COc1cccc2c1C(=O)c1c(O)c3c(c(O)c1C2=O)C[C@@](O)(C(=O)CO)C[C@@H]3O[C@H]1C[C@H](N)[C@H](O)[C@H](C)O1 [doxorubicin alkane sulfonate n=16]
